Laboratory results reported in ChEMBL document CHEMBL1201862, “PubChem BioAssay data set” (2004).
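Step 1: Grow cells in 96-well plates. Step 2: Expose to compound for 48 hours at 5 concentrations. Step 3: Interpolate endpoints linearly; if unreached, use highest concentration. GI50: concentration for 50% inhibition of growth.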 The source made the active and inactive calls. No stated cut-off is given here; in the data, active = GI50 up to about 1.1 µM and inactive = higher.

Assays:
Assay in all cases: NCI anticancer screen, dose series, 48 h
[1] = system: MCF7
[2] = system: 786-0
[3] = system: OVCAR-4
[4] = system: HOP-62
[5] = system: OVCAR-3
[6] = system: NCI-H23
[7] = system: EKVX
[8] = system: UACC-62
[9] = system: TK-10
[10] = system: K562
[11] = system: NCI-H522
[12] = system: SK-MEL-28
[13] = system: NCI/ADR-RES
[14] = system: HCT-116
[15] = system: Hs-578T
[16] = system: PC-3
[17] = system: HT-29
[18] = system: SF-295
[19] = system: KM12

Row | Structure (SMILES) | GI50 [1] | GI50 [2] | GI50 [3] | GI50 [4] | GI50 [5] | GI50 [6] | GI50 [7] | GI50 [8] | GI50 [9] | GI50 [10] | GI50 [11] | GI50 [12] | GI50 [13] | GI50 [14] | GI50 [15] | GI50 [16] | GI50 [17] | GI50 [18] | GI50 [19]
1 | O=C1/C(=C/c2cccc([N+](=O)[O-])c2)Cc2ccccc21 | > 100 µM (inactive) | > 100 µM (inactive) | 75 µM (inactive) | > 100 µM (inactive) | > 100 µM (inactive) | 73.1 µM (inactive) | > 100 µM (inactive) | > 100 µM (inactive) | > 100 µM (inactive) | > 100 µM (inactive) | 59.3 µM (inactive) | > 100 µM (inactive) | > 100 µM (inactive) | 39.7 µM (inactive) | > 100 µM (inactive) | > 100 µM (inactive) | > 100 µM (inactive) | > 100 µM (inactive) | 86.5 µM (inactive)
2 | NC1=CN(CCCO)C2=N/C(=C\c3ccccc3)C(=O)N12 | > 100 µM (inactive) | > 100 µM (inactive) | > 100 µM (inactive) | > 100 µM (inactive) | > 100 µM (inactive) | > 100 µM (inactive) | 69.5 µM (inactive) | > 100 µM (inactive) | > 100 µM (inactive) | > 100 µM (inactive) | 80.4 µM (inactive) | > 100 µM (inactive) | > 100 µM (inactive) | > 100 µM (inactive) | 86.3 µM (inactive) | > 100 µM (inactive) | > 100 µM (inactive) | > 100 µM (inactive) | > 100 µM (inactive)
3 | C[C@@]12C=CC3C/C(=N\C(N)=S)C=C(CCCC4OCCO4)[C@]3(CC1)C2 (stereo partly drawn) | 10.8 µM (inactive) | 19.3 µM (inactive) | 18.4 µM (inactive) | 29.5 µM (inactive) | 15.2 µM (inactive) | 21.3 µM (inactive) | 10.3 µM (inactive) | 16.2 µM (inactive) | 20.6 µM (inactive) | 17.9 µM (inactive) | 6.87 µM (inactive) | 18 µM (inactive) | 15.8 µM (inactive) | 13.7 µM (inactive) | 28.5 µM (inactive) | 17.4 µM (inactive) | 11.2 µM (inactive) | 23.1 µM (inactive) | 23.6 µM (inactive)
4 | CC[n+]1[b-](C(C)(C)C)n(/N=C/C(C)(C)C)[b-](C(C)(C)C)[n+]1CC | > 100 µM (inactive) | > 100 µM (inactive) | > 100 µM (inactive) | > 100 µM (inactive) | > 100 µM (inactive) | > 100 µM (inactive) | > 100 µM (inactive) | > 100 µM (inactive) | > 100 µM (inactive) | 67.1 µM (inactive) | > 100 µM (inactive) | > 100 µM (inactive) | > 100 µM (inactive) | > 100 µM (inactive) | > 100 µM (inactive) | > 100 µM (inactive) | > 100 µM (inactive) | > 100 µM (inactive) | > 100 µM (inactive)
5 | C[C@]12CCC3C4=C(CCC3C1CCC2=O)C(=O)[C@H]1O[C@H]1C4=O (stereo partly drawn) | 2.18 µM (inactive) | 1.83 µM (inactive) | 3.05 µM (inactive) | 3.27 µM (inactive) | 1.46 µM (inactive) | 2.77 µM (inactive) | 14.3 µM (inactive) | 2.94 µM (inactive) | 3.35 µM (inactive) | 1.29 µM (inactive) | 1.84 µM (inactive) | 12.3 µM (inactive) | 4.02 µM (inactive) | 0.453 µM (active) | 9.51 µM (inactive) | 4.18 µM (inactive) | 1.36 µM (inactive) | 15.3 µM (inactive) | 5.43 µM (inactive)
6 | NCCCCNCCCNC(=O)CNC(=O)CC(O)C(N)CCCC(NC(=O)C(CN)NC(=O)C(O)CNC(=O)CC(N)c1ccc(O)cc1)C(=O)O (stereo not drawn) | > 10 µM (inactive) | > 10 µM (inactive) | > 10 µM (inactive) | > 10 µM (inactive) | > 10 µM (inactive) | > 10 µM (inactive) | > 10 µM (inactive) | > 10 µM (inactive) | > 10 µM (inactive) | > 10 µM (inactive) | > 10 µM (inactive) | > 10 µM (inactive) | > 10 µM (inactive) | > 10 µM (inactive) | > 10 µM (inactive) | > 10 µM (inactive) | > 10 µM (inactive) | > 10 µM (inactive) | > 10 µM (inactive)
7 | Cc1ccc2c(c1)CC1(Cc3ccccc3C1=O)C2=O (stereo not drawn) | > 100 µM (inactive) | > 100 µM (inactive) | > 100 µM (inactive) | 44.4 µM (inactive) | > 100 µM (inactive) | > 100 µM (inactive) | > 100 µM (inactive) | > 100 µM (inactive) | > 100 µM (inactive) | > 100 µM (inactive) | > 100 µM (inactive) | > 100 µM (inactive) | > 100 µM (inactive) | > 100 µM (inactive) | > 100 µM (inactive) | > 100 µM (inactive) | > 100 µM (inactive) | > 100 µM (inactive) | > 100 µM (inactive)
